Each block holds one compound with its values, some of them ahead of it.
Experiment: solvent given as SMILES

SMILES: CCCCCCOc1ccc(N(c2ccc(OCCCCCC)cc2)c2ccc(-c3sc(-c4ccc(N(c5ccc(OCCCCCC)cc5)c5ccc(OCCCCCC)cc5)cc4)c4nc(CC)c(CC)nc34)cc2)cc1
emission maximum (in ClCCl): 725 nm

SMILES: COc1cc(C=C(C#Cc2ccccc2)C#Cc2ccccc2)c(OC)cc1C=C(C#Cc1ccccc1)C#Cc1ccccc1
emission maximum (in ClC(Cl)Cl): 522 nm

SMILES: C[SiH]1c2ccccc2-c2cc3c(cc21)-c1ccccc1[SiH]3C (configuration not stated)
emission maximum (in ClCCl): 389 nm

SMILES: CC(C)(C)c1ccc2c(c1)c1cc(C(C)(C)C)ccc1n2-c1cc(-n2c3ccc(C(C)(C)C)cc3c3cc(C(C)(C)C)ccc32)c(-n2c3ccc(C(C)(C)C)cc3c3cc(C(C)(C)C)ccc32)c(C#N)c1-n1c2ccc(C(C)(C)C)cc2c2cc(C(C)(C)C)ccc21
emission maximum (in CCCCCC): 449.25 nm | emission maximum (in CCO): 484.15 nm | emission maximum (in Cc1ccccc1): 456 nm | emission maximum (in ClCCl): 472.48 nm

SMILES: O=[N+]([O-])c1ccc(NCCN(Cc2c3ccccc3cc3ccccc23)c2ccc([N+](=O)[O-])cc2[N+](=O)[O-])c([N+](=O)[O-])c1
emission maximum (in C1CCCCC1): 419 nm | emission maximum (in C1CCOC1): 416 nm | emission maximum (in CC#N): 389 nm | emission maximum (in CC(C)=O): 388 nm | emission maximum (in CCO): 388 nm | emission maximum (in CN(C)C=O): 409 nm | emission maximum (in CO): 389 nm | emission maximum (in ClC(Cl)Cl): 417 nm

SMILES: CN1CCCc2cc(C3=Cc4cccc[n+]4[B-](F)(F)O3)ccc21
emission maximum (in ClC(Cl)Cl): 508 nm

SMILES: CCCCc1cc(CCCC)c2ccc3c(CCCC)cc(CCCC)c4ccc1c2c43
emission maximum (in CCCCCC): 388 nm | emission maximum (in CO): 388 nm | emission maximum (in ClCCl): 389 nm

SMILES: O=C1/C(=C\c2ccc(N(c3ccccc3)c3ccccc3)cc2)S(=O)(=O)c2ccccc21
emission maximum (in C1CCOC1): 630 nm | emission maximum (in C1COCCO1): 600 nm | emission maximum (in CC#N): 518 nm | emission maximum (in CC(C)=O): 540 nm | emission maximum (in CCOC(C)=O): 617 nm | emission maximum (in CN(C)C=O): 520 nm | emission maximum (in CO): 597 nm | emission maximum (in CS(C)=O): 553 nm | emission maximum (in Cc1ccccc1): 587 nm | emission maximum (in ClC(Cl)Cl): 626 nm | emission maximum (in ClCCl): 631 nm

SMILES: C=Cc1ccc(-c2ccc(-c3nnc(-c4ccc(-c5nnc(-c6ccc(-c7ccc(C=C)cc7)s6)o5)cc4)o3)s2)cc1
emission maximum (in C1COCCO1): 397 nm | emission maximum (in CC#N): 400 nm | emission maximum (in CC(=O)N(C)C): 407 nm | emission maximum (in CCCCCCCCCCO): 399 nm | emission maximum (in CCCCCCCCO): 400 nm | emission maximum (in CCCCCCO): 399 nm | emission maximum (in CCCCO): 400 nm | emission maximum (in CCO): 400 nm | emission maximum (in CS(C)=O): 423 nm | emission maximum (in Cc1ccccc1): 399 nm | emission maximum (in ClC(Cl)Cl): 398 nm

SMILES: CC1=CC(C)=[N+]2C1=Cc1c3ccccc3c(C#Cc3ccsc3)n1[B-]2(F)F
emission maximum (in CCCCCC): 615 nm | emission maximum (in CCCCCCCCO): 621 nm | emission maximum (in CCOC(C)=O): 616 nm | emission maximum (in CN(C)C=O): 623 nm | emission maximum (in ClCCl): 628 nm

SMILES: COc1ccc(C2=N/C(=C\c3ccccc3)C(=O)N2)cc1OC
emission maximum (in C1COCCO1): 455 nm

SMILES: N#Cc1c(-n2nnc3c2CCC2C(CC3)[C@@H]2CO)n([C@H]2C[C@H](O)[C@@H](CO)O2)c2ncnc(N)c12 (some centres not stated)
emission maximum (in CO): 380 nm

SMILES: C1=Cc2ccc3ccccc3c2NB1c1ccccc1
emission maximum (in C1CCCCC1): 383 nm

SMILES: CN(C)c1ccc(/C=C/c2ccc([N+](=O)[O-])c(O)c2)cc1
emission maximum (in C1CCCCC1): 529 nm | emission maximum (in C1COCCO1): 633 nm | emission maximum (in CCCCCCC): 523 nm | emission maximum (in Cc1ccccc1): 605 nm

SMILES: CC1(C)CC(/C=C/c2ccc(-n3cncn3)cc2)=CC(=C(C#N)C#N)C1
emission maximum (in C1CCOC1): 520 nm | emission maximum (in CC#N): 522 nm | emission maximum (in CCO): 518 nm | emission maximum (in CCOC(C)=O): 515 nm | emission maximum (in ClCCl): 518 nm | emission maximum (in c1ccccc1): 511 nm

SMILES: COc1ccc2c3c([nH]c2c1)C(C)=NCC3
emission maximum (in CC#N): 480 nm | emission maximum (in CS(C)=O): 420 nm | emission maximum (in O): 480 nm

SMILES: Cc1cc(O)c(C(C)C)cc1/N=C/c1ccc(C(F)(F)F)cc1
emission maximum (in C1CCCCC1): 398 nm | emission maximum (in C1CCOC1): 426 nm | emission maximum (in C1COCCO1): 424 nm | emission maximum (in CC#N): 425 nm | emission maximum (in CC(C)(C)O): 431 nm | emission maximum (in CC(C)O): 434 nm | emission maximum (in CCCCCC): 401 nm | emission maximum (in CCCCO): 436 nm | emission maximum (in CCO): 429 nm | emission maximum (in CCOC(C)=O): 421 nm | emission maximum (in CN(C)C=O): 434 nm | emission maximum (in CO): 434 nm | emission maximum (in CS(C)=O): 439 nm | emission maximum (in ClC(Cl)Cl): 430 nm | emission maximum (in ClCCl): 424 nm | emission maximum (in O): 449 nm | emission maximum (in OCCO): 438 nm

SMILES: COc1cc(N(c2ccc(C=C(C#N)C#N)c(OC)c2)c2ccc(C=C(C#N)C#N)c(OC)c2)ccc1C=C(C#N)C#N
emission maximum (in C1COCCO1): 521 nm | emission maximum (in CC#N): 566 nm | emission maximum (in CC(C)=O): 557 nm | emission maximum (in CCOC(C)=O): 532 nm | emission maximum (in CN(C)C=O): 575 nm | emission maximum (in CO): 551 nm | emission maximum (in Cc1ccccc1): 500 nm | emission maximum (in ClC(Cl)Cl): 514 nm | emission maximum (in ClCCl): 531 nm

SMILES: Cc1ccc(-c2ccc3ccc4cc(C(C)(C)C)cc5ccc2c3c45)cc1
emission maximum (in C1CCOC1): 384 nm | emission maximum (in ClCCl): 384 nm

SMILES: CN(C)c1ccc(-c2ncnc3ccccc23)cc1
emission maximum (in C1CCCCC1): 421 nm | emission maximum (in C1CCOC1): 483 nm | emission maximum (in CC#N): 529 nm | emission maximum (in CS(C)=O): 543 nm | emission maximum (in ClCCl): 490 nm

SMILES: CCCC1(CCC)c2cc(-c3ccco3)ccc2-c2ccc(-c3ccco3)cc21
emission maximum (in C1CCCCC1): 377 nm

SMILES: O=C1CC(c2cccc([N+](=O)[O-])c2)c2c(c3ccccc3c3nc4ccccc4nc23)O1 (configuration not stated)
emission maximum (in CCCCCC): 417 nm | emission maximum (in CCOC(C)=O): 429 nm | emission maximum (in CN(C)C=O): 443 nm | emission maximum (in CO): 452 nm | emission maximum (in CS(C)=O): 452 nm | emission maximum (in ClC(Cl)Cl): 428 nm

SMILES: Cc1nc2cccc(-c3nc4ccccc4o3)c2c(=O)[nH]1
emission maximum (in CN(C)C=O): 398 nm

SMILES: N[C@@H](Cc1ccc(O)cc1)C(=O)O
emission maximum (in O): 300 nm

SMILES: c1cc2c3c(cccc3c1)-c1c-2c2ccccc2c2ccccc12
emission maximum (in CCCCCCC): 536 nm

SMILES: CCCC1(CCC)c2ccccc2-c2ccc(-c3ccc(C(C)(C)C)cc3)cc21
emission maximum (in C1CCCCC1): 314 nm

SMILES: c1ccc2c(c1)[nH]c1ccccc12
emission maximum (in CC#N): 340 nm | emission maximum (in CCCCCC): 332 nm | emission maximum (in CCO): 339 nm

SMILES: CCCCCCN1C(=O)C(c2ccc(-n3c4ccccc4c4ccccc43)cc2)=C(c2ccc(-n3c4ccccc4c4ccccc43)cc2)C1=O
emission maximum (in ClC(Cl)Cl): 626 nm | emission maximum (in c1ccc2c(c1)c1ccccc1n2-c1ccc(-c2ccc(-n3c4ccccc4c4ccccc43)cc2)cc1): 591 nm

SMILES: c1ccc(N(c2ccccc2)c2ccc(-c3cnc(-c4ccc(N(c5ccccc5)c5ccccc5)cc4)s3)cc2)cc1
emission maximum (in CO): 488 nm

SMILES: COC(=O)C(NC(=O)OC(C)(C)C)c1ccc2oc(-c3ccc(O)cc3O)nc2c1 (configuration not stated)
emission maximum (in CC1CCCCC1): 470 nm | emission maximum (in CC#N): 380 nm | emission maximum (in CO): 365 nm

SMILES: Oc1ccc(-c2cccs2)cc1-c1nc2ccccc2s1
emission maximum (in CCO): 428 nm | emission maximum (in ClCCl): 405 nm | emission maximum (in O): 566 nm

SMILES: CC(C)(C)NC(=O)c1ccc(Br)c2ccc3c4ccc(F)cc4c4cc(F)ccc4c3c12
emission maximum (in ClCCl): 394 nm

SMILES: Cc1c(C)c(N2c3ccccc3Oc3ccccc32)c(C)c(C)c1B(c1c(C)c(C)c(N2c3ccccc3Oc3ccccc32)c(C)c1C)c1c(C)c(C)c(N2c3ccccc3Oc3ccccc32)c(C)c1C
emission maximum (in CC(C)(C)c1ccc(-n2c3ccc([Si](c4ccccc4)(c4ccccc4)c4ccccc4)cc3c3cc([Si](c4ccccc4)(c4ccccc4)c4ccccc4)ccc32)cc1): 509 nm

Results, then the compound that gave them:

emission maximum (in CCOC(C)=O): 441 nm
SMILES: CCn1c(-c2ccc(-c3ccc4c(c3)C3(c5ccccc5-c5ccccc53)c3ccccc3-4)cc2)c(-c2ccc3ccccc3c2)c(-c2ccc3ccccc3c2)c1-c1ccc(-c2ccc3c(c2)C2(c4ccccc4-c4ccccc42)c2ccccc2-3)cc1

emission maximum (in C1CCCCC1): 489 nm | emission maximum (in CC#N): 548 nm | emission maximum (in CCO): 583 nm | emission maximum (in c1ccccc1): 509 nm
SMILES: CNc1ccc2c(c1)-c1ccccc1C2=O

emission maximum (in ClC(Cl)Cl): 575 nm
SMILES: N#Cc1nc(N(Cc2ccc(Br)cc2)Cc2ccc(Br)cc2)c(C#N)nc1N(Cc1ccc(Br)cc1)Cc1ccc(Br)cc1

emission maximum (in ClCCl): 453 nm
SMILES: Cc1cccc(C)c1N1C(c2ccccc2)=Cc2cccc[n+]2[B-]1(F)F

emission maximum (in C1COCCO1): 352 nm
SMILES: COc1ccc(-c2ccc(-c3ccc(F)cc3)cc2)cc1

emission maximum (in CC#N): 625 nm | emission maximum (in CCCCCC): 586 nm | emission maximum (in CO): 635 nm
SMILES: COc1ccc2c(c1)N(c1ccc(C)cc1)c1cc3c(cc1=N2)Oc1c(cc(C(C)(C)C)cc1C(C)(C)C)N=3

emission maximum (in ClCCl): 459 nm
SMILES: c1cc2ccc3ccc(OP4(Oc5ccc6ccc7cccc8ccc5c6c78)=NP(Oc5ccc6ccc7cccc8ccc5c6c78)(Oc5ccc6ccc7cccc8ccc5c6c78)=NP(Oc5ccc6ccc7cccc8ccc5c6c78)(Oc5ccc6ccc7cccc8ccc5c6c78)=N4)c4ccc(c1)c2c34

emission maximum (in ClCCl): 472 nm
SMILES: COc1ccc2c(c1)CCC1=C(C#Cc3ccc(Cl)cc3)O[B-](F)(F)[O+]=C12

emission maximum (in CCCCCC): 494 nm
SMILES: CC(C)[Si](C#Cc1c2ccccc2c(C#C[Si](C(C)C)(C(C)C)C(C)C)c2nc3c(nc12)Cc1ccccc1-3)(C(C)C)C(C)C

emission maximum (in CS(C)=O): 568 nm
SMILES: C[N+]1=C(/C=C/C=C2/N(CCC[N+](C)(C)C)c3ccc(Br)cc3C2(C)C)C(C)(C)c2ccccc21

emission maximum (in CCO): 470 nm | emission maximum (in ClCCl): 460 nm
SMILES: CCN(CC)c1ccc2cc(C#N)/c(=N\C(=O)c3ccco3)oc2c1

emission maximum (in CCO): 585 nm | emission maximum (in ClCCl): 585 nm | emission maximum (in O): 587 nm
SMILES: Oc1c(-c2cccs2)cccc1-c1nc2ccccc2s1

emission maximum (in O): 634 nm
SMILES: CN(C)c1ccc2[c](c1)[Ge]([CH3])([CH3])[C]1=CC(=[N+](C)C)C=CC1=C2

emission maximum (in ClCCl): 551 nm
SMILES: Cc1cc(C)c(C2=C3C=C(/C=C/C(=O)OC(C)(C)C)C=[N+]3[B-](F)(F)n3c2ccc3N2CCCC2)c(C)c1

emission maximum (in ClCCl): 492 nm
SMILES: CCN(CC)c1ccc2cc(-c3nc4c5ccccc5c5ccccc5c4n3-c3ccc(C(C)(C)C)cc3)c(=O)oc2c1

emission maximum (in C1COCCO1): 405 nm | emission maximum (in CC#N): 413 nm | emission maximum (in CO): 429 nm | emission maximum (in ClCCl): 403 nm
SMILES: CNc1ncc2nc(C(=O)OC)n(Cc3ccccc3)c2n1

— the Deep4Chem optical property database
